The values below come from ChEMBL document CHEMBL3596148, “Meridianin derivatives as potent Dyrk1A inhibitors and neuroprotective agents” (Bioorg Med Chem Lett, 2015).

Broadly, the inhibition is the share of the control response that was lost under treatment. Lower therefore signals a response near the control. A word on the IC50: it is the concentration at which inhibition is half-maximal.

Some results are limits rather than exact numbers.

Experiment [1] addresses Insulin-like growth factor 1 receptor (Homo sapiens) (UniProt P08069). In words: Inhibition of IGF-1R (unknown origin) at 0.5 uM relative to control.
The target in experiment [2] is T1, Inhibitor of nuclear factor kappa-B kinase subunit beta (Homo sapiens) (UniProt O14920).
T1 sequence (whole entry): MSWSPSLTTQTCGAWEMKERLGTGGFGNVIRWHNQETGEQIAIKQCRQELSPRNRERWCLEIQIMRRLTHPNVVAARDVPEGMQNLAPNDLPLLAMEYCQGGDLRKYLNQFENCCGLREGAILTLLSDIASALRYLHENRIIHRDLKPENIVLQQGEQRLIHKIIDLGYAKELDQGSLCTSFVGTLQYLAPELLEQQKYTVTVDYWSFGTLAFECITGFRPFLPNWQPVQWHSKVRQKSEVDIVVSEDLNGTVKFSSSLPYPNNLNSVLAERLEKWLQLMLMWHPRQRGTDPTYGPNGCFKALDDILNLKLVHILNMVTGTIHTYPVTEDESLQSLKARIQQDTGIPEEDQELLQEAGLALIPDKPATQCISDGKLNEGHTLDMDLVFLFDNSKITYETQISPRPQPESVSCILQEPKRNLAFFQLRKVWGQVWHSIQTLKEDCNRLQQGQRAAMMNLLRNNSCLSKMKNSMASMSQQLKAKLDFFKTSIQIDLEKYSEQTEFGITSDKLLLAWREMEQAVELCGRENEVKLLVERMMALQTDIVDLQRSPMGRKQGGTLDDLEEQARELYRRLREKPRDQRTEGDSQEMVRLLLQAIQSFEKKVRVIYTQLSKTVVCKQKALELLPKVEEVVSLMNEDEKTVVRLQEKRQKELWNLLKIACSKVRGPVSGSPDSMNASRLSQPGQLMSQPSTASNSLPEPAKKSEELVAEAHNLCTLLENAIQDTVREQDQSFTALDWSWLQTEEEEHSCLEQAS
In words: Inhibition of IKKbeta (unknown origin) at 0.5 uM relative to control.

Experiment [3] concerns the target Vascular endothelial growth factor receptor 1 (Homo sapiens) (UniProt P17948). The experiment can be described thus: Inhibition of VEGFR1 (unknown origin) at 0.5 uM relative to control.
In experiment [4] the target is Cyclin-dependent kinase 2 (Homo sapiens) (UniProt P24941). The experiment can be described thus: Inhibition of CDK2 (unknown origin) at 0.5 uM relative to control.
The target in experiment [5] is RAC-beta serine/threonine-protein kinase (Homo sapiens) (UniProt P31751). The experiment can be described thus: Inhibition of PKBbeta (unknown origin) at 0.5 uM relative to control.
In experiment [6] the test system is SH-SY5Y. The experiment can be described thus: Neuroprotective activity against glutamate-induced neurotoxicity in human SH-SY5Y cells assessed as cell viability at 50 uM incubated for 30 mins prior to glutamate challenge measured after 24 hrs by MTT assay (reference value: 73.8 +/- 4.5%). It is filed as functional. To be noted: read-out: Activity. For orientation: Tetrazolium dyes change colour on reduction, which living cells bring about.

In experiment [7] the test system is SH-SY5Y. The experiment can be described thus: cells. The following applies: Homo sapiens, 24 h.
For experiment [8], the target named is Cyclin-dependent kinase 9 (Homo sapiens) (UniProt P50750). In words: Inhibition of CDK9 (unknown origin) at 0.5 uM relative to control.
The target in experiment [9] is T2, Dual specificity tyrosine-phosphorylation-regulated kinase 2 (Homo sapiens, UniProt Q92630).
T2 sequence (Q92630 whole entry): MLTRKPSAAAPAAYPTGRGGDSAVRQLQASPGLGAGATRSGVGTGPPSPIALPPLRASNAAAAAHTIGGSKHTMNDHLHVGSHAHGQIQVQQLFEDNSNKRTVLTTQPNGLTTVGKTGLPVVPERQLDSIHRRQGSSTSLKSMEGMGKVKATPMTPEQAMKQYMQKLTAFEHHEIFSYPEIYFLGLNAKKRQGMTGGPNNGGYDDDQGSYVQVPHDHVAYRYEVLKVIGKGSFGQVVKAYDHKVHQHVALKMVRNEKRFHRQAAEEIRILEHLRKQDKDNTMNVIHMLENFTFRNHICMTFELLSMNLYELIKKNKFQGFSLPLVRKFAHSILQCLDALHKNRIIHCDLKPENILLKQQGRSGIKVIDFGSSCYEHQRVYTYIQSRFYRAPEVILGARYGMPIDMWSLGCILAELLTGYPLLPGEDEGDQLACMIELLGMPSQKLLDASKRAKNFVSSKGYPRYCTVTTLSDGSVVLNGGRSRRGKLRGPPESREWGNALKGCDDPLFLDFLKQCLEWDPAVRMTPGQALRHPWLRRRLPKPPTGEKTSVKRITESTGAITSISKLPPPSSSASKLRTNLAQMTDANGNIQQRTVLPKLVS
The experiment can be described thus: Inhibition of Dyrk2 (unknown origin) using Woodtide as substrate after 30 mins by P81 membrane assay in presence of [33P]-g-ATP.

The target in experiment [10] is T3, Dual specificity tyrosine-phosphorylation-regulated kinase 3 (Homo sapiens, UniProt O43781).
T3 sequence (O43781 whole entry): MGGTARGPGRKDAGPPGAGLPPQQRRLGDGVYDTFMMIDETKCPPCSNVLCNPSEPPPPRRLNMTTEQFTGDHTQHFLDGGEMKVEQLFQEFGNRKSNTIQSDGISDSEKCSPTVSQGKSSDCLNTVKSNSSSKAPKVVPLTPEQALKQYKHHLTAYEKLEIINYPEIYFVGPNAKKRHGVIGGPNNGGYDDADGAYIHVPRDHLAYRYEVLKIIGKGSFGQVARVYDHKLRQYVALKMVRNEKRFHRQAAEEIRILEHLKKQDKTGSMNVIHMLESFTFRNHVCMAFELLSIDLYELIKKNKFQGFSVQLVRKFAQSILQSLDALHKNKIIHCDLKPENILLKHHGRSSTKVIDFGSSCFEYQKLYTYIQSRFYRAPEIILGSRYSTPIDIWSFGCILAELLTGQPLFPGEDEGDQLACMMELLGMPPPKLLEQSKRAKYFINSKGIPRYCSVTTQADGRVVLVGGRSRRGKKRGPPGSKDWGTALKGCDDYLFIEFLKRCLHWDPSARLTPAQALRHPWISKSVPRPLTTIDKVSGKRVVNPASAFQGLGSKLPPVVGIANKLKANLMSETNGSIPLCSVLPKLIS
The experiment can be described thus: Inhibition of Dyrk3 (unknown origin) using Woodtide as substrate after 30 mins by P81 membrane assay in presence of [33P]-g-ATP.

Experiment [11] has as its target T4, Aurora kinase A (Homo sapiens) (UniProt O14965).
T4 sequence (whole entry): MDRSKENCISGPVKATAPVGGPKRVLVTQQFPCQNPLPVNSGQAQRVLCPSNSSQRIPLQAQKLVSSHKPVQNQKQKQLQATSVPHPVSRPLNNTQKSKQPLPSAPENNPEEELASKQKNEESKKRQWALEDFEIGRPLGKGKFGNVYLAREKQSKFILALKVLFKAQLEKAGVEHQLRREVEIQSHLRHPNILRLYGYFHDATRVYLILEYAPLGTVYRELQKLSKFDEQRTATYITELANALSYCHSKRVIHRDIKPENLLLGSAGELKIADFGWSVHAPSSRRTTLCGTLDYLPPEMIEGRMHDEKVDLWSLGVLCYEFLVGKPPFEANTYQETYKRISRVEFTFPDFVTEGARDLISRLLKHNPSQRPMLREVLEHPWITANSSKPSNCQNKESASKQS
In words: Inhibition of Aurora A (unknown origin) at 0.5 uM relative to control.

Chain of Vascular endothelial growth factor receptor 1 (Homo sapiens) (P17948 whole entry): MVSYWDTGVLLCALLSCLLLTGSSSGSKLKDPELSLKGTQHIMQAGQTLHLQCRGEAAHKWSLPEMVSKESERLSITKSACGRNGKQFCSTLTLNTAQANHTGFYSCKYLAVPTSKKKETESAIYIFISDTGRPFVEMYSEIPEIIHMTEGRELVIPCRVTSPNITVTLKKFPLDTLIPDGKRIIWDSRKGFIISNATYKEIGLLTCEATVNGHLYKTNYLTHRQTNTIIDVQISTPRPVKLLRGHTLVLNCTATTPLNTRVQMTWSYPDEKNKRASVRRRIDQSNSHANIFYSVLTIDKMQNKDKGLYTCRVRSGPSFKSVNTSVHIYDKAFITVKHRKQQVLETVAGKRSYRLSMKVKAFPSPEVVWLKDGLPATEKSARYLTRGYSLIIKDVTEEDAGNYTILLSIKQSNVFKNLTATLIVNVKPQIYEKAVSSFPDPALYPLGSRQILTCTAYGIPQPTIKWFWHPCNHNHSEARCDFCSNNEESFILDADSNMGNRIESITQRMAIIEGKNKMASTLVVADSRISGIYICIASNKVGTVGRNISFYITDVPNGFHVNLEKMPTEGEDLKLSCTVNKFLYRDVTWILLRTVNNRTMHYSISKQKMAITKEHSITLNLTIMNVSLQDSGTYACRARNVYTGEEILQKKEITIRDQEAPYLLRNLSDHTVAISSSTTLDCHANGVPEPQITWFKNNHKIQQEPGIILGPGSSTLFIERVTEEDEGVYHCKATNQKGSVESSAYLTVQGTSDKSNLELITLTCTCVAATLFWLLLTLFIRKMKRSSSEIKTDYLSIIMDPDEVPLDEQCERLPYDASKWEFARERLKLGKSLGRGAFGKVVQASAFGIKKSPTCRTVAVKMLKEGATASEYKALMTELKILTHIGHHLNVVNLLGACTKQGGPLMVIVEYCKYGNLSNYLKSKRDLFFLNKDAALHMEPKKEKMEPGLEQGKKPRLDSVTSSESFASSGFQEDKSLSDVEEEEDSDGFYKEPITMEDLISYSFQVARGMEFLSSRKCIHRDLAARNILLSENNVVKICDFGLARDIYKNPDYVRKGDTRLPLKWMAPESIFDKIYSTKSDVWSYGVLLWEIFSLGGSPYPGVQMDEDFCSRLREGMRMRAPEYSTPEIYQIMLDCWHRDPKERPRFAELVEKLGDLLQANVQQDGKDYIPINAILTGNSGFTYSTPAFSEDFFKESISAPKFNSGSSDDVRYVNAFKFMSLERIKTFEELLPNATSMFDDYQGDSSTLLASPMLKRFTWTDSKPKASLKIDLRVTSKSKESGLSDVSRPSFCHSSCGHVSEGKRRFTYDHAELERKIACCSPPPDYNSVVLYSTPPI
Chain of RAC-beta serine/threonine-protein kinase (Homo sapiens) (P31751 whole entry): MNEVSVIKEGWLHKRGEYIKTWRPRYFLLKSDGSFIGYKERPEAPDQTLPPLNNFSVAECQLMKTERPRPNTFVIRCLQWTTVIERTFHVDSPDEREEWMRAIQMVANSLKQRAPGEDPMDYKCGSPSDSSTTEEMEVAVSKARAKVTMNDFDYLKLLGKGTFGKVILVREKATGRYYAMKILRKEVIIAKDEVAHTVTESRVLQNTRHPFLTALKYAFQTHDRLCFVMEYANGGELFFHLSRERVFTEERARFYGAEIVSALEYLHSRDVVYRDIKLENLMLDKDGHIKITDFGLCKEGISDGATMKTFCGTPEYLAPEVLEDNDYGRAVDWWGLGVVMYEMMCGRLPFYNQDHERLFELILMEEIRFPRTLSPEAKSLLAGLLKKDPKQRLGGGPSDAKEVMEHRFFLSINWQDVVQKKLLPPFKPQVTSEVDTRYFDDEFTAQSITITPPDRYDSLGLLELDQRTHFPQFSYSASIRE
Chain of Cyclin-dependent kinase 9 (Homo sapiens) (P50750 whole entry): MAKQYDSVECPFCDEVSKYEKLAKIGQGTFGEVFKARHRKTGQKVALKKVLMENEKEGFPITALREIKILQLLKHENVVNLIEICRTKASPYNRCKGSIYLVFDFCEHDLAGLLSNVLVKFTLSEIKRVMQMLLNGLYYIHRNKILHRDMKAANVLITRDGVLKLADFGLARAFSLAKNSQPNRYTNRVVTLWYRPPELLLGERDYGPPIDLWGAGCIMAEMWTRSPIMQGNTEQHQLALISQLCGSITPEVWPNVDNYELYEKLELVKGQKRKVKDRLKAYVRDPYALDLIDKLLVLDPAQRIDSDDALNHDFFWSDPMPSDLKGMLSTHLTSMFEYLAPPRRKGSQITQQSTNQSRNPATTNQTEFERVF
Chain of Insulin-like growth factor 1 receptor (Homo sapiens) (P08069 31-736 limits assumed): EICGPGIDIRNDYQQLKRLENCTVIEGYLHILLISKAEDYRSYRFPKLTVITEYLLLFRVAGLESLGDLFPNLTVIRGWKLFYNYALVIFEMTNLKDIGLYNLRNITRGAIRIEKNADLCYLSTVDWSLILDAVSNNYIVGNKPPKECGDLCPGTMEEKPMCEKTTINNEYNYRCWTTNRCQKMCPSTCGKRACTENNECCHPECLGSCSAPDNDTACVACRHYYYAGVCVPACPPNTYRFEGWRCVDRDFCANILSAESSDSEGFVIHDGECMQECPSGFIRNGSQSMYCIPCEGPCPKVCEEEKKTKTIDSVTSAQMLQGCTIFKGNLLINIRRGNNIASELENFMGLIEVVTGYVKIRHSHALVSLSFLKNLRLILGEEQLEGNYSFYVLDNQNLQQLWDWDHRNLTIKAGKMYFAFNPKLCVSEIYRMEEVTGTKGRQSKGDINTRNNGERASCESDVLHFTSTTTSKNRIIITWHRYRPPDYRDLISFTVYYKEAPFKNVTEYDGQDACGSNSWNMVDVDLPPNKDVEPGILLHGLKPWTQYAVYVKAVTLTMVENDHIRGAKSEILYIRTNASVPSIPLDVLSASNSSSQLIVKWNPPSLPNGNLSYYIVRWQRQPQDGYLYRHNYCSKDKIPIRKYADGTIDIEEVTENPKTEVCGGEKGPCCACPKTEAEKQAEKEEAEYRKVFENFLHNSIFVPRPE
Chain of Insulin-like growth factor 1 receptor (Homo sapiens) (P08069 741-1367 limits assumed): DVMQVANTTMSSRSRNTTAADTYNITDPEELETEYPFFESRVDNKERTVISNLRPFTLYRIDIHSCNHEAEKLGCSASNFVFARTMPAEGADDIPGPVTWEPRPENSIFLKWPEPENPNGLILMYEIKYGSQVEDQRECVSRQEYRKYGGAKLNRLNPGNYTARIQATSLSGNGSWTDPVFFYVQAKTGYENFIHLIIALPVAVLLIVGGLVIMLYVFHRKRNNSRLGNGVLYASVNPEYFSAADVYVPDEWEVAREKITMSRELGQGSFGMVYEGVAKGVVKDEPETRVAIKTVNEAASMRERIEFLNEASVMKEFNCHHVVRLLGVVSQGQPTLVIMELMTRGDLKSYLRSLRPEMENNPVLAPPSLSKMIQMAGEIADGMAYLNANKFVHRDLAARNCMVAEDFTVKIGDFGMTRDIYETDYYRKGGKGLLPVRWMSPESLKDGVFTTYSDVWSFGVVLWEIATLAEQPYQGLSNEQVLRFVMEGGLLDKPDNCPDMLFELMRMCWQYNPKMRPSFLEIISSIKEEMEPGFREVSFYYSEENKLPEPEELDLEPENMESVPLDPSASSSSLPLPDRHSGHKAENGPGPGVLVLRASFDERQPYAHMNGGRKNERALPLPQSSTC

In the case of `Nc1nccc(-c2cn(C(=O)N3CCOCC3)c3ccc(Br)cc23)n1`, the inhibition in [1] turned out to be 2.1%; in experiment [2] it was 7.8%; in experiment [3], 0%; in experiment [4], 0%; in experiment [5] it was 12.6%; in experiment [8], 12.6%. In [11], this molecule yielded an inhibition of 0%. In addition, the viability at 50 µM in [6] came to 86.4%. Moreover, the IC50 is over 100 µM in [7], 1400 nM in [9] and 2200 nM in experiment [10].
